Source: publication PMC10435442, “Developing multitarget coumarin based anti-breast cancer agents: synthesis and molecular modeling study” (Scientific Reports, 2023)
Values after ≈ are worked out from the molar mass of the structure shown. Values joined by “and” are separate entries in the source; they are usually repeats but may differ in a detail not shown here. Identical values can stand only once. Like-named read-outs stand apart in the source and are kept apart here.

Experiments:
MCF-10A = assay: MTT cytotoxicity assay, nonmalignant MCF-10A; details: read-out: MCF-10A IC50; MTT, nonmalignant MCF-10A;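 also: MTT assay with absorbance read at 570 nm after 48 h exposure of cells to serial compound concentrations at 37 °C, testing selectivity against nonmalignant versus cancer cells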
Bcl-2 = Bcl-2 level (ELISA) in treated cells; assay type: cell-based, human; details: for Bcl-2 Conc. (Average) / Bcl-2 Conc. (single wells): Bcl-2 ELISA
MDA-MB-231 [1] = assay: Annexin V-FITC/PI dual staining apoptosis assay, MDA-MB-231; assay type: cell-based, human; details: MDA-MB-231
Caspase-9 = Caspase-9 level (ELISA) in treated cells; assay type: cell-based, human
Bax = Bax level (ELISA) in treated cells; assay type: cell-based, human
MDA-MB-231 [2] = assay: DNA flow cytometric cell cycle analysis, MDA-MB-231; assay type: cell-based, human
in vitro = details: human, MCF-10A cells (nonmalignant breast)
MCF-7 = assay: MTT cytotoxicity assay, MCF-7; details: for IC50: Homo sapiens
MDA-MB-231 [3] = assay: MTT cytotoxicity assay, MDA-MB-231; details: for IC50: Homo sapiens; for % viability: MDA
EGFR = EGFR (Homo sapiens, UniProt P00533); assay: In vitro EGFR enzyme inhibition assay (ELISA); details: for inhibition at 10 pg/mL / inhibition at 0.0001 µg/mL / inhibition at 0.001 µg/mL / inhibition at 0.01 µg/mL: read-out: EGFR %inh
EGFR, sequence (P00533 25-1210): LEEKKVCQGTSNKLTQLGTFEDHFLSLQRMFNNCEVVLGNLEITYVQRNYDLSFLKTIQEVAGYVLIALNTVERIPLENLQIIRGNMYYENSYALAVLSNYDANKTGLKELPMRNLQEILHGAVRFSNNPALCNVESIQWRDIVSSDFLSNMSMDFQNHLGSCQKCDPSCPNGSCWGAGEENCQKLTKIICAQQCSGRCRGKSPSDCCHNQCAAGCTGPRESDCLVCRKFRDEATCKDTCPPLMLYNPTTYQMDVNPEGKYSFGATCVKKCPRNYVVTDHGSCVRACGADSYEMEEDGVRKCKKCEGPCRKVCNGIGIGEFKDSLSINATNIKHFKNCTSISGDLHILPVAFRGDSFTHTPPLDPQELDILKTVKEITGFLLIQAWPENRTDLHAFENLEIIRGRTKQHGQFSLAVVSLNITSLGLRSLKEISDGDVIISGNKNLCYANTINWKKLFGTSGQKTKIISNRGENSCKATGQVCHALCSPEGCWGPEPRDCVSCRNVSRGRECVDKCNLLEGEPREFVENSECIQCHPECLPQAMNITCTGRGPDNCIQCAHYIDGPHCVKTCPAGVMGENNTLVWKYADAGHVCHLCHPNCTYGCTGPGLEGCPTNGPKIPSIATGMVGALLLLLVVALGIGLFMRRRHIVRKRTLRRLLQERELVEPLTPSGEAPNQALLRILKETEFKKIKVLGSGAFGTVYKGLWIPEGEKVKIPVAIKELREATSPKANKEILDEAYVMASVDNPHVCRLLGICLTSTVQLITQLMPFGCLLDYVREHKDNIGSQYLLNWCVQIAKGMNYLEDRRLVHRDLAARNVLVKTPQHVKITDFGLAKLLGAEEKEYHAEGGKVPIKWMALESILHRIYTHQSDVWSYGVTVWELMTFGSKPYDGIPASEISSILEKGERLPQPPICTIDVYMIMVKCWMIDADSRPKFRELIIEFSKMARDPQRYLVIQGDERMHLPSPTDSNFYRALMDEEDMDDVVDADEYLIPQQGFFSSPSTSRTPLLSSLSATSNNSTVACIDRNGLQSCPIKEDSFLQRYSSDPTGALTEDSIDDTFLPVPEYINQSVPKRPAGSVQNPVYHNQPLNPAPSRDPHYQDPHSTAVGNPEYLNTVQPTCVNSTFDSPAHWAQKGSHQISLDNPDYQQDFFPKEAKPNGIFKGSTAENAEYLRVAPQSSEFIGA

[4] = MDA-MB-231, compared to control
[5] = MCF7, read-out: cytotoxicity_IC50 mcf7
[6] = MDA-MB-231, read-out: MDA-MBA-231 IC50
[7] = MDA-MB-231, read-out: cytotoxicity_IC50 MDA
[8] = EGFR IC50, lab report 01-09-2021, 04 compounds, reference Erlotinib
[9] = MDA cells (MDA-MB-231), cont.MDA = 1

For `CC(=O)Oc1ccc2c(COC(=O)c3ccc(Cl)cc3)cc(=O)oc2c1` [Compound 14, (7-Acetoxy-2-oxo-2H-chromen-4-yl)methyl 4-chlorobenzoate], the IC50 (MCF-10A) was 263 ± 4.77 µM, the “Bcl-2 Conc” value (Bcl-2; MDA-MB-231 cells) was 2.984±0.12^gh ng/ml and the “Bcl-2 FLD (fold versus control)” value (Bcl-2; MDA-MB-231 cells) was 0.329 folds. The “% Apoptosis Early” value (MDA-MB-231 [1]) was 23.61^ilmn %, the “% Apoptosis Late” value (MDA-MB-231 [1]) was 13.22^hik % and the “% Apoptosis Total” value (MDA-MB-231 [1]) was 41.02% and 41.02^gh %. For the same compound, the “% Necrosis” value (MDA-MB-231 [1]) was 4.19%, the “Caspase-9 Conc.” value (Caspase-9; MDA-MB-231 cells) was 18.97±0.62^ghi ng/ml and the “Caspase-9 FLD (fold versus control)” value (Caspase-9; MDA-MB-231 cells) was 4.37 folds. The “Bax Conc” value (Bax; MDA-MB-231 cells) was 0.292±0.0106^ghi ng/ml, the “Bax FLD (fold versus control)” value (Bax; MDA-MB-231 cells) was 4.9 folds and the “%G0-G1” value (MDA-MB-231 [2]; MDA-MB-231, IC50 concentration) was 54.69^ikBD %. The “%G2/M” value (MDA-MB-231 [2]; MDA-MB-231, IC50 concentration) was 7.09^dACDE %, the “%Pre-G1” value (MDA-MB-231 [2]; MDA-MB-231, IC50 concentration) was 41.02^iklmC % and the “%S” value (MDA-MB-231 [2]; MDA-MB-231, IC50 concentration) was 38.22^ABE %. For the same compound, the “cell cycle arrest at S phase” value (MDA-MB-231 [2]; [4]) was 1.38 folds, the “increase of apoptotic cells in pre-G1 phase” value (MDA-MB-231 [2]; [4]) was 19.9 folds and the IC50 at 48 h (in vitro) was 97.9 ± 4.77 µg/mL (≈ 263 µM). The viability at 48 h, 0.4 ug (in vitro) was 85.6%, the viability at 48 h, 1.6 ug (in vitro) was 77.6% and the viability at 48 h, 6.25 ug (in vitro) was 67.2%. The viability at 48 h, 25 ug (in vitro) was 59.5%, the viability at 48 h, 100 ug (in vitro) was 49.6% and the IC50 (MCF-7; MCF7, read-out: MCF-7 IC50) was 285 ± 6.41 µM. For the same compound, the IC50 (MCF-7; [5]) was 106 ± 6.41 µg/mL, the “% viability” value (MCF-7; MCF7, 0.4ug) was 88.083% and the “% viability” value (MCF-7; MCF7, 1.6ug) was 77.238%. For the same compound, the “% viability” value (MCF-7; MCF7, 6.3ug) was 66.961%, the “% viability” value (MCF-7; MCF7, 25ug) was 60.34% and the “% viability” value (MCF-7; MCF7, 100ug) was 50.7566%. The “selectivity against MDA-MB-231 than MCF-7” value (MDA-MB-231 [3]) was 150 times, the IC50 (MDA-MB-231 [3]; [6]) was 1.9 ± 0.03 µM and the IC50 (MDA-MB-231 [3]; [7]) was 0.64 ± 0.03 µg/mL. The “% viability” value (MDA-MB-231 [3]; 0.4ug (log conc. -0.41)) was 53.505%, the “% viability” value (MDA-MB-231 [3]; 1.6ug (log conc. 0.19)) was 43.354% and the “% viability” value (MDA-MB-231 [3]; 6.25ug (log conc. 0.8)) was 34.773%. The “% viability” value (MDA-MB-231 [3]; 25ug (log conc. 1.4)) was 26.136%, the “% viability” value (MDA-MB-231 [3]; 100ug (log conc. 2)) was 15.4795% and the IC50 (EGFR; [8]) was 2.44 µM. It also gave an IC50 (EGFR; EGFR inhibition IC50) of 2.44 ± 0.051 µM, an inhibition at 10 pg/mL (EGFR) of 18% and an inhibition at 0.0001 µg/mL (EGFR) of 24%. The inhibition at 0.001 µg/mL (EGFR) was 44%, the inhibition at 0.01 µg/mL (EGFR) was 78% and the “Percentage above Reference IC50 (potency relative to erlotinib)” value (EGFR; reference Erlotinib) was 5.942%.

In the case of `O=C(COc1ccc2c(COC(=O)c3ccccc3)cc(=O)oc2c1)c1ccc(Cl)cc1` [Compound S8], the BCL2 conc. (Bcl-2; MCF7) is reported as 3.291 ± 0.36 ng/mL, the “BCL2 FLD” value (Bcl-2; MCF7, fold vs cont.MCF7 = 1) is reported as 0.44 and the “Bcl-2 Conc. (Average)” value (Bcl-2; MCF7 cells treated with the compound, mean of 3 wells, control 7.438) is reported as 3.291 ng/mL. For the same compound, the “Bcl-2 Conc. (single wells)” value (Bcl-2; MCF7 cells treated with the compound, replicate wells, control 7.438) was 3.693 ng/mL and 3.01 ng/mL and 3.172 ng/mL, the Casp9 (Caspase-9; MCF7 cells treated with the compound, cont.MCF7 4.528±0.61) was 30.39 ± 2.56 ng/mL and the “Caspase 9 Conc. (Average)” value (Caspase-9; MCF7 cells, caspase9 ELISA, mean of 3 wells, control 4.528) was 30.39 ng/mL. The “Caspase 9 Conc. (single wells)” value (Caspase-9; MCF7 cells, caspase9 ELISA, replicate wells, control 4.528) was 27.43 ng/mL and 31.78 ng/mL and 31.97 ng/mL, the “Casp9 FLD (fold vs control)” value (Caspase-9; MCF7 cells, cont.MCF7 = 1) was 6.71 and the “Bax Conc. (Average)” value (Bax; MCF7, ELISA backfit, wells A2-C2) was 164.5 pg/mL. For the same compound, the BAX (Bax; MCF7, cell culture supernatant) was 164.5 ± 5.58 pg/mL and the “BAX FLD” value (Bax; MCF7, fold vs cont.MCF7 = 1) was 5.27.

With `COc1ccccc1C(=O)OCc1cc(=O)oc2cc(OCC(=O)c3ccc(Cl)cc3)ccc12` [s12] the BCL2 conc. (Bcl-2; MDA cells (MDA-MB-231) treated with the compound, cont.MDA 10.83±0.046) was 2.934 ± 0.154 ng/mL, the “Bcl-2 Conc. (single wells)” value (Bcl-2; MDA cells (MDA-MB-231), duplicate wells, control 10.83) was 2.826 ng/mL and 3.043 ng/mL and the “Bcl-2 Conc. (Average)” value (Bcl-2; MDA cells (MDA-MB-231), mean of 2 wells, control 10.83) was 2.934 ng/mL. The “BCL2 FLD (fold vs control)” value (Bcl-2; [9]) was 0.271, the Casp9 (Caspase-9; MDA cells (MDA-MB-231) treated with the compound, cont.MDA 2.611±0.19) was 19.16 ± 0.41 ng/mL and the “Caspase 9 Conc. (single wells)” value (Caspase-9; MDA cells (MDA-MB-231), caspase9 ELISA, duplicate wells, control 4.084) was 21.43 ng/mL and 21.56 ng/mL. For the same compound, the “Casp9 FLD (fold vs control)” value (Caspase-9; [9]) was 7.34, the “Bax Conc. (Average)” value (Bax; MDA, ELISA backfit, duplicate wells) was 360.4 pg/mL and the BAX (Bax; MDA, cell culture supernatant) was 360.4 ± 11.8 pg/mL. For the same compound, the “BAX FLD” value (Bax; MDA, fold vs cont.MDA = 1) was 5.22.

Compound `COc1ccccc1C(=O)OCc1cc(=O)oc2cc(OCC(=O)c3ccccc3)ccc12` [Compound 11, [2-Oxo-7-(2-oxo-2-phenylethoxy)-2H-chromen-4-yl]methyl 2-methoxybenzoate] has an IC50 (MCF-10A) of 178 ± 3.86 µM, an IC50 at 48 h (in vitro) of 79.2 ± 3.86 µg/mL (≈ 178 µM) and a viability at 48 h, 0.4 ug (in vitro) of 84.2%. The viability at 48 h, 1.6 ug (in vitro) was 76.6%, the viability at 48 h, 6.25 ug (in vitro) was 66.5% and the viability at 48 h, 25 ug (in vitro) was 58.4%. It also gave a viability at 48 h, 100 ug (in vitro) of 47.8%, an IC50 (MCF-7; MCF7, read-out: MCF-7 IC50) of 131 ± 3.52 µM and an IC50 (MCF-7; [5]) of 58.1 ± 3.52 µg/mL. The “% viability” value (MCF-7; MCF7, 0.4ug) was 86.03%, the “% viability” value (MCF-7; MCF7, 1.6ug) was 75.27% and the “% viability” value (MCF-7; MCF7, 6.3ug) was 65.137%. For the same compound, the “% viability” value (MCF-7; MCF7, 25ug) was 57.0548%, the “% viability” value (MCF-7; MCF7, 100ug) was 45.822% and the “anti-proliferative activity against MCF-7 (in words)” value (MCF-7; SAR discussion) was “diminished the activity”. The IC50 (MDA-MB-231 [3]; [6]) was 61.2 ± 1.48 µM, the IC50 (MDA-MB-231 [3]; [7]) was 27.2 ± 1.48 µg/mL and the “% viability” value (MDA-MB-231 [3]; 0.4ug (log conc. -0.41)) was 73.69%. The “% viability” value (MDA-MB-231 [3]; 1.6ug (log conc. 0.19)) was 66.71%, the “% viability” value (MDA-MB-231 [3]; 6.25ug (log conc. 0.8)) was 58.055% and the “% viability” value (MDA-MB-231 [3]; 25ug (log conc. 1.4)) was 52.2673%. For the same compound, the “% viability” value (MDA-MB-231 [3]; 100ug (log conc. 2)) was 41.289%, the “anti-proliferative activity against MDA-MB-231 (in words)” value (MDA-MB-231 [3]; SAR discussion) was “poor anti-proliferative activity” and the IC50 (EGFR; [8]) was 1.83 µM. It also gave an IC50 (EGFR; EGFR inhibition IC50) of 1.83 ± 0.038 µM, an inhibition at 10 pg/mL (EGFR) of 7.8% and an inhibition at 0.0001 µg/mL (EGFR) of 23%. For the same compound, the inhibition at 0.001 µg/mL (EGFR) was 54%, the inhibition at 0.01 µg/mL (EGFR) was 76% and the “Percentage above Reference IC50 (potency relative to erlotinib)” value (EGFR; reference Erlotinib) was 7.91%.
